Experimental data published in patent publication US20150246058A1, “COMPOSITION FOR PREVENTING HAIR LOSS AND ACCELERATING HAIR GROWTH” (RNS CO., LTD., priority 2012, published 2015).

Key:
5α-reductase = 5α-reductase inhibitory efficacy: DHT produced in testosterone-stimulated dermal papilla cells (DHT ELISA); format: cell-based; settings: 50 nM testosterone, 24 hours, produced DHT relative to control
Protocol: After seeding 1 ml of dermal papilla cells (DPCs) by 5×10^5/ml into each well of a 24-well plate, then incubating the same for 24 hours, each of the reaction products prepared according to procedures described in Examples 1 to 72 was added in amounts of 50 μg/ml, 10 μg/ml and 0 μg/ml, respectively, to individual wells. After 1 hour, the wells were subjected to stimulation using 50 nM testosterone (DMSO dissolved). The supernatant was discarded 24 hours after culturing, to thus obtain DPc pellets. A content of dihydrotestosterone (DHT) (DB52021, Hamburg, Germany) was determined by means of enzyme-linked immune-sorbent assay. DPCs cell pellets were seeded in an amount of 100 μL into each of Dihydrotestosterone (DHT) ELISA microtiter strips coated with rabbit anti-DHT antibody, 25 μL of DHT antiserum was seeded in every well, and subjected to a reaction at 2 to 8° C. for 15 to 20 hours, followed by washing the same three times. Thereafter, 100 μL of DHT-HRP enzyme conjugate was seeded in every well and reacted on a shaker at room temperature for 30 minutes, followed by washing the same three times. Furthermore, 100 μL of substrate was seeded in every well and reacted on a shaker at room temperature for 20 to 30 minutes. Then, the product was treated using 100 μL stop solution, and subjected to measurement of absorbance at 450 nm to express an amount of produced DHT by the absorbance (three times repeated). An amount of produced DHT relative to a control was calculated in terms of an inhibitory rate (%), and results thereof are shown in Table 3 below.

mice (C57BL/6, female) = assay: Assessment of anagen phase induction and promotion in shaved mice; format: in vivo
Protocol: Experimentation for effects of inducing and promoting an anagen phase (that is, hair growth period) was performed with 7 weeks-old mice (C57BL/6, female) widely used in assessment of activity for anagen phase induction. First, using an electric shaver, hair on the dorsal part of a mouse was removed. Each mouse was weighed and all mice were divided into groups, each group having five (5) mice, in order to uniformly disperse body weights of the mice. Hair cut regions were coated with an excipient, control and test medicine, respectively. In this regard, the excipient was 95% ethanol, the control was 2% minoxidil, and the test medicine used herein was the compound in Example 8 diluted with 95% ethanol to have a final concentration of 0.5%. Using a brush, each of the above test samples was sufficiently applied to the dorsal part of each mouse once per day.

[1] = 20 days after experimentation, topical once per day on shaved dorsal part, five mice per group, Minoxidil 2%, Example 8 0.5% in 95% ethanol

Row | Molecule | 5α-reductase inhibitory rate (%) (5α-reductase; sample concentration 10 μg/ml) | 5α-reductase inhibitory rate (%) (5α-reductase; sample concentration 50 μg/ml) | other results
1 | COC1CCC2(C)C(CCC3(C)C2CC=C2C4CC(C)(C)CCC4(C)CCC23C)C1(C)C (stereo not drawn) [Compound in Example 50, O-methyl-β-amyrin] | 16 | 31 | –
2 | CCCCCOC1CCC2(C)C(CCC3(C)C2CC=C2C4CC(C)(C)CCC4(C)CCC23C)C1(C)C (stereo not drawn) [Compound in Example 51, O-pentyl-β-amyrin] | 22 | 38 | –
3 | CCCCCCCCOC1CCC2(C)C(CCC3(C)C2CC=C2C4CC(C)(C)CCC4(C)CCC23C)C1(C)C (stereo not drawn) [Compound in Example 52, O-octyl-β-amyrin] | 28 | 43 | –
4 | CCCCCCCCOC1CCC2(C)C(CCC3(C)C2CC=C2C4C(C)C(C)CCC4(C)CCC23C)C1(C)C (stereo not drawn) [Compound in Example 55, O-octyl-α-amyrin] | 24 | 38 | –
5 | CCCCCCCCOC1CCC2(C)C(=CCC3C2CCC2(C)C(C(C)CCC(CC)C(C)C)CCC32)C1 (stereo not drawn) [Compound in Example 57, O-octyl-β-sitosterol] | 21 | 41 | –
6 | CCCCCCCCCCCCCCCCCCO[C@H]1CC[C@@]2(C)C(=CC[C@H]3[C@@H]4CC[C@H]([C@H](C)CC[C@@H](CC)C(C)C)[C@@]4(C)CC[C@@H]32)C1 [Compound in Example 58, O-octadecyl-β-sitosterol] | 31 | 46 | –
7 | CCCCCCCCOC1CCC2(C)C(CCC3(C)C2CC=C2C4C(C)C(C)CCC4(C(=O)O)CCC23C)C1(C)C (centres unmarked) [Compound in Example 59, O-octyl-ursolic acid] | 22 | 41 | –
8 | CCCCCCCCCCCCCCCCCCOC1CCC2(C)C(CCC3(C)C2CC=C2C4C(C)C(C)CCC4(C(=O)O)CCC23C)C1(C)C (centres unmarked) [Compound in Example 60, O-octadecyl-ursolic acid] | 35 | 49 | –
9 | CCCCCCCCOC1CCC2(C)C(CCC3(C)C2CC=C2C4CC(C)(C)CCC4(C(=O)O)CCC23C)C1(C)C (centres unmarked) [Compound in Example 61, O-octyl-oleanolic acid] | 22 | 37 | –
10 | CCCCCCCCOC1CCC2(C)C(CCC3(C)C2CC=C2C4CC(C)(C)CCC4(C)CCC23C)C1(C)C(=O)O (stereo not drawn) [Compound in Example 63, O-octyl-α-boswellic acid] | 21 | 34 | –
11 | C=C(C)C1CCC2(C(=O)O)CCC3(C)C(CCC4C5(C)CCC(OCCCCCCCC)C(C)(C)C5CCC43C)C12 (centres unmarked) [Compound in Example 65, O-octyl-betulinic acid] | 19 | 31 | –
12 | CCCCCCCCOC1CCC2(C)C(CCC3(C)C2C(=O)C=C2C4CC(C)(C(=O)O)CCC4(C)CCC23C)C1(C)C (centres unmarked) [Compound in Example 66, O-octyl-glycyrrhetinic acid] | 33 | 51 | –
13 | CCCCCCCCOC1CCC2(C)C(=CCC3C2CCC2(C)C(C(C)CCC=C(C)C)CCC32)C1 (centres unmarked) [Compound in Example 67, O-octyl-desmosterol] | 24 | 41 | –
14 | CCCCCCCCO[C@H]1CC[C@@]2(C)C(=CC[C@H]3[C@@H]4CC[C@H]([C@H](C)CCCC(C)C)[C@@]4(C)CC[C@@H]32)C1 [Compound in Example 68, O-octyl-cholesterol] | 35 | 45 | –
15 | CCCCCCCCOC1CCC2(C)C(=CCC3C2CCC2(C)C(C(C)C=CC(CC)C(C)C)CCC32)C1 (centres unmarked) [Compound in Example 69, O-octyl-stigmasterol] | 19 | 33 | –
16 | CCCCCCCCOC1CCC2(C)C(=CCC3C2CCC2(C)C(C(C)CCC(C)C(C)C)CCC32)C1 (centres unmarked) [Compound in Example 70, O-octyl-campesterol] | 28 | 51 | –
17 | CCCCCCCCOC1CCC2(C)C(=CCC3C2CCC2(C)C(C(C)C=CC(C)C(C)C)CCC32)C1 (centres unmarked) [Compound in Example 71, O-octyl-brassicasterol] | 29 | 38 | –
18 | C/C=C(\CC[C@@H](C)[C@H]1CC[C@H]2[C@@H]3CC=C4C[C@@H](OCCCCCCCC)CC[C@]4(C)[C@H]3CC[C@]12C)C(C)C [Compound in Example 72, O-octyl-fucosterol] | 19 | 35 | –
19 | Nc1cc(N2CCCCC2)nc(N)[n+]1[O-] [Minoxidil, minoxidil, reference compound] | – | – | Number of mouse graded + (improved) (mice (C57BL/6, female); [1]): 1; Number of mouse graded ++ (remarkably improved) (mice (C57BL/6, female); [1]): 2; Number of mouse graded ± (slightly improved) (mice (C57BL/6, female); [1]): 1; Number of mouse graded − (not changed) (mice (C57BL/6, female); [1]): 1
20 | O-dodecyl-β-amyrin [Compound in Example 53] | 31 | 41 | –

Row | Molecule | 5α-reductase inhibitory rate (%) (5α-reductase; sample concentration 10 μg/ml) | 5α-reductase inhibitory rate (%) (5α-reductase; sample concentration 50 μg/ml) | other results
21 | O-octadecyl-oleanolic acid [Compound in Example 62] | 29 | 51 | –
22 | O-octadecyl-α-amyrin [Compound in Example 56] | 38 | 49 | –
23 | O-octadecyl-β-amyrin [Compound in Example 54] | 35 | 48 | –
24 | O-octyl-β-boswellic acid [Compound in Example 64] | 35 | 51 | –
25 | betulinic acid stearate [Compound in Example 33] | 31 | 51 | –
26 | brassicasterol stearate [Compound in Example 47] | 24 | 39 | –
27 | desmosterol stearate [Compound in Example 39] | 26 | 41 | –
28 | dihydroandrosterone stearate [Compound in Example 37] | 24 | 38 | –
29 | fucosterol stearate [Compound in Example 49] | 25 | 41 | –
30 | glycyrrhetinic acid stearate [Compound in Example 35] | 24 | 39 | –
31 | oleanolic acid acetate [Compound in Example 23] | 11 | 23 | –
32 | oleanolic acid stearate [Compound in Example 25] | 35 | 41 | –
33 | ursolic acid acetate [Compound in Example 19] | 22 | 31 | –
34 | ursolic acid stearate [Compound in Example 21] | 35 | 51 | –
35 | α-amyrin stearate [Compound in Example 13] | 45 | 57 | –
36 | α-boswellic acid stearate [Compound in Example 28] | 37 | 51 | –
37 | β-amyrin behenate [Compound in Example 9] | 38 | 59 | –
38 | β-amyrin laurate [Compound in Example 6] | 43 | 59 | –
39 | β-amyrin stearate [Compound in Example 8] | 48 | 63 | hair growth in the hair cut region (in words) (mice (C57BL/6, female); 0.5% in 95% ethanol, topical once per day, Table 4 and FIG. 1): rapid hair growth; Number of mouse graded + (improved) (mice (C57BL/6, female); [1]): 1; Number of mouse graded ++ (remarkably improved) (mice (C57BL/6, female); [1]): 3; Number of mouse graded ± (slightly improved) (mice (C57BL/6, female); [1]): 1
40 | β-boswellic acid stearate [Compound in Example 31] | 31 | 47 | –
